From publication PMC6429710, “Structure–activity relationships in a series of antiplasmodial thieno[2,3-b]pyridines” (Malaria Journal, 2019)
In brackets after ≈: the same amount, converted by molar mass. Read-outs that look alike come from different tables or passages of the source.

Assays:
PfGSK-3 = target: T1, PfGSK-3 (Plasmodium falciparum, UniProt O77344); test: biochemical; format: biochemical; settings: for IC50: 6 µM ATP, mean of three determinations, range in brackets, read-out: IC50 [µM], PfGSK-3 (Kinase Glo Plus)
T1 construct: 6xHis; made in house; host or cells: Escherichia coli C41
T1 sequence (O77344 1-440): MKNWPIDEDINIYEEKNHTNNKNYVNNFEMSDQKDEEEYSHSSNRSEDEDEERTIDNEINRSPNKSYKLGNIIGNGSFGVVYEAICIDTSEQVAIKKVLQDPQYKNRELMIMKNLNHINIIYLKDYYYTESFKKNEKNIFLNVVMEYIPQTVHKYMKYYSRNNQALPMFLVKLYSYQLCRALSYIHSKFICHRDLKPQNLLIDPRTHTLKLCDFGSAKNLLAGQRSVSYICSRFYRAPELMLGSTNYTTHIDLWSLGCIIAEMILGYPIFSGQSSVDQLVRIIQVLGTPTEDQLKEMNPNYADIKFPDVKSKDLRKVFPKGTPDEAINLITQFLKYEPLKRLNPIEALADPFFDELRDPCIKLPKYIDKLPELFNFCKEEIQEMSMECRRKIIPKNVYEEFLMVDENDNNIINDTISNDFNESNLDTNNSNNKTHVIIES
Protocol: PfGSK-3 was cloned into pOPIN F expression vector [41] using ligation independent cloning (InFusion, Takara Clontech). Expression vector was transformed into Escherichia coli C41 and expression of recombinant PfGSK3-6xHis was induced by incubation with 1 mM IPTG at 16 °C overnight.
Kinase activity was measured using Kinase-Glo Plus Luminescent Kinase Assay (Promega). 20 ng recombinant GSK-3 were incubated for 30 min at 30 °C in the presence of 12 μM GS-1 peptide substrate ([…]pSEDEEE, pS stands for phosphorylated serine, Biaffin GmbH & Co KG/proteinkinase.de) and 6 μM ATP (ultra pure, Promega) in a total volume of 5 μL kinase reaction buffer (40 mM Tris/HCl pH 7.5; 20 mM MgCl2; 0.1 mg/mL BSA). Kinase reaction mix was transferred to a solid white 384 well plate (NUNC, Thermo Scientific) and kinase reaction was stopped by adding 5 μL RT Kinase-Glo reagent. After 10 min luminescence was measured in an EnVision multilabel plate reader (Perkin Elmer, integration time 0.5 s/well). […] All samples were normalized to a negative control (reaction without kinase). Data points were plotted into Graphpad Prism, normalized to a DMSO control and IC50 values were calculated using nonlinear regression.

HsGSK-3 = HsGSK-3 (Homo sapiens, UniProt P49841); test: Kinase-Glo Plus assay for inhibition of HsGSK-3; format: biochemical; settings: 6 µM ATP; mean of three determinations, range in brackets
Chain of HsGSK-3 (P49841 whole entry): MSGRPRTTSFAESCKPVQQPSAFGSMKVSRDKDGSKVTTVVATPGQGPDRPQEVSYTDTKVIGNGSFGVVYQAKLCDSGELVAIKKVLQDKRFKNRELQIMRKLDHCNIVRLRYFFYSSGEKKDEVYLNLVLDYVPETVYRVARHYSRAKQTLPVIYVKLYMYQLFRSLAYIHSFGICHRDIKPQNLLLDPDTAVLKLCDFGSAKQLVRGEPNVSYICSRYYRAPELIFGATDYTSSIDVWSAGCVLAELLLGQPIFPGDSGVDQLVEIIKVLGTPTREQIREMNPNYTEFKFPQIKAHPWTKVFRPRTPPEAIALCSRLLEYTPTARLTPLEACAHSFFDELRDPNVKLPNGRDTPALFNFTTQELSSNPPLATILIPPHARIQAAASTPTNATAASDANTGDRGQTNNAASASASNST
Protocol: Kinase reaction mix was transferred to a solid white 384 well plate (NUNC, Thermo Scientific) and kinase reaction was stopped by adding 5 μL RT Kinase-Glo reagent. After 10 min luminescence was measured in an EnVision multilabel plate reader (Perkin Elmer, integration time 0.5 s/well). […] All samples were normalized to a negative control (reaction without kinase). Data points were plotted into Graphpad Prism, normalized to a DMSO control and IC50 values were calculated using nonlinear regression.

[1] = system: asexual erythrocytic stages of transgenic NF54-luc P. falciparum; test: Luciferase-based viability screening for antiplasmodial activity; format: cell-based, Plasmodium falciparum; settings: for IC50: read-out: IC50 [µM], PfNF54-Luc; for % inhibition ± SD, PfNF54-Luc at 3 µM: 3 µM test compound, luciferase readout
Protocol: For the luciferase-based viability assays, asexual erythrocytic stages of transgenic NF54-luc P. falciparum were used. These parasites constitutively express high luciferase levels. The parasites were cultured as described previously. Parasite cultures with parasitaemia of 0.5–1% were dispensed in triplicate into white 96-well flat-bottom plates (each well contains 250 µL) (NUNC, Roskilde, Denmark) and incubated in the presence of 3 µM test compounds for 48 h (37 °C, 90% N2, 5% CO2, and 5% O2). 0.01% DMSO was included in the untreated infected RBC cultures as negative control, since the compounds stock initially was diluted in DMSO and each treatment well also contained 0.01% DMSO. Subsequently, 100 µL RPMI1640 media was removed from each well and a 100 µL volume of the Bright-Glo® substrate solution was added to each well. The resultant cleavage product of the reaction, light, was measured using a […] luminometer (Thermo), to ascertain viable parasites. Untreated cultures were used as negative controls and to calculate the inhibition rate (0% inhibition of parasite growth). Experiments were performed in triplicate and were repeated as a whole at least twice. Blasticidin (Sigma-Aldrich, St. Louis, MO, USA), used for selection of transfected parasites, was included as a positive control on each plate and gave > 90% inhibition of parasite growth at concentration 2 µg/mL. […] For active compounds IC50 values were determined from dose–response curves. Calculation of parasite growth inhibition, of the IC50 values and statistical analysis were carried out using GraphPad Prism Version 6.0b (GraphPad Software, Inc. San Diego, CA).

[2] = system: asexual erythrocytic stages of transgenic NF54-luc P. falciparum; parameters: method as in PMID 23214499; settings: prototype compound 1; read-out: IC50 [µM], PfNF54-Luc; cited from earlier work
HEK293T cells = test: Cytotoxicity assay on HEK293 cells (PrestoBlue viability); format: cell-based, human
Protocol: HEK293T cells were seeded into a solid black flat bottom 96 well plate (2.5 × 10^4 cells/well) in 200 μL Dulbecco Modified Eagle Medium (DMEM) supplemented with 10% fetal bovine serum and 1% Pen/Strep (final concentration of 100 U/mL Penicillin and 100 μg/mL Streptomycin). Cells were incubated at 37 °C under 5% CO2. After 18 h the supernatant was removed and fresh DMEM containing serial dilutions of compounds was added. Compounds were solubilized in DMSO (final DMSO concentration in HEK293T culture was 0.5%.) Wells containing 0.5% DMSO served as a negative control. Plates were incubated for further 48 h at 37 °C under 5% CO2. To monitor cell viability the supernatant was removed and cells were incubated with 200 μL 10% PrestoBlue (Invitrogen) in PBS at 37 °C. After 30 min fluorescence (λex = 560 nm, λem = 590 nm) was measured in an EnVision multilable plate reader (Perkin Elmer, integration time 0.1 s/well). Data points were plotted into Graphpad Prism, normalized to the DMSO control and IC50 values were calculated using nonlinear regression.

[3] = Kinetic solubility by laser nephelometry; format: physicochemical; settings: kinetic from dmso stock, aqueous phosphate buffer pH 7.4, 1% DMSO, 25 °C, mean ± standard deviation, read-out: S0 pH 7.4, exp (kinetic solubility)
Protocol: Kinetic solubility indicates the solubility of the most rapidly precipitating form. Kinetic solubilities of 1 and 4h were determined by laser nephelometry using the […] nephelometer (BMG LabTech, Ortenberg, Germany) and F-bottom transparent 96-well plates. The instrument uses red laser light (635 nm, 80% intensity), which passes through the 96-well plate and which is scattered by turbid suspensions. Each compound was measured six times at 25 °C by preparing three independent stock solutions in concentrations of 5 to 10 mM in DMSO. From each stock solution two independent dilution series were prepared. Based on preliminary experiments, dilution concentrations were chosen such that at least five to six concentrations below and above the expected point of precipitation were recorded. To the 96-well plate containing 198 μL aqueous phosphate buffer at pH 7.4, 2 μL of each dilution sample in DMSO was added and shaken for 10 s. at 700 rpm (double orbital). […] The pH was adjusted by adding sulfuric acid. First, the plates were scanned without content to quantify the background, which was later subtracted from the obtained values of each individual well. As blank, 2 μL of neat DMSO was added to the phosphate buffer. Close to the point of precipitation, particle concentration can be assumed to be proportional to the intensity of scattered light. […]

[4] = from dose-response curves, 48 h

Row | Compound | % inhibition ± SD, PfNF54-Luc at 3 µM ([1]; 48 h) [%] | IC50 [1, 4] [µM] | other results
1 | CCN(CC)c1ccc(-c2c(C#N)c(N)nc3sc(C(=O)c4cccc(Cl)c4)c(N)c23)c(Cl)c1 [(+)4b] |  |  | IC50 (PfGSK-3): 39.6 µM; IC50 (HsGSK-3): > 100 µM; inhibition at 3 µM ([1]; Plasmodium falciparum, NF54, 48 h, read-out: % inhibition ± SD, PfNF54-Luc at 3 µM): 73 ± 1.2%; IC50 ([1]; Plasmodium falciparum, NF54, 48 h): 1.1 µM
2 | N#Cc1c(N)nc2sc(C(=O)c3cccc(Cl)c3)c(N)c2c1-c1ccc(OCCO)cc1Cl [3d] | 25.6 ± 3.3 | 20 | 
3 | CN(CCN)c1ccc(-c2c(C#N)c(N)nc3sc(C(=O)c4cccc(Cl)c4)c(N)c23)c(Cl)c1.Cl [4i] | 8.1 ± 3.3 |  | 
4 | N#Cc1c(N)nc2sc(C(=O)c3cccc(Cl)c3)c(N)c2c1-c1ccc(OCC(O)CO)cc1Cl (centres unmarked) [3f] | 14.7 ± 1.8 |  | 
5 | N#Cc1c(N)nc2sc(C(=O)c3cccc(Cl)c3)c(N)c2c1-c1ccc(OCC(=O)O)cc1Cl [3g] | 31.3 ± 1.1 |  | 
6 | N#Cc1c(N)nc2sc(C(=O)c3cccc(Cl)c3)c(N)c2c1-c1ccc(OCc2ccccc2)cc1Cl [3c] | 12.8 ± 4.9 |  | 
7 | N#Cc1c(N)nc2sc(C(=O)c3cccc(Cl)c3)c(N)c2c1-c1ccc(O)cc1Cl [2e] | 0.2 ± 2.5 |  | 
8 | Cl.N#Cc1c(N)nc2sc(C(=O)c3cccc(Cl)c3)c(N)c2c1-c1ccc(N2CCNCC2)cc1Cl [4j] | 75.7 ± 1.5 | 1.5 | 
9 | N#Cc1c(N)nc2sc(C(=O)c3cccc(Cl)c3)c(N)c2c1-c1ccc(Cl)cc1Cl [2a] | 25.7 ± 3.5 | 6.2 | 
10 | N#Cc1c(N)nc2sc(C(=O)c3cccc(Cl)c3)c(N)c2c1-c1ccc(N2CCCCC2)cc1Cl [4d] | 39.1 ± 1.1 | 5 | 
11 | CN(C)c1ccc(-c2c(C#N)c(N)nc3sc(C(=O)c4cccc(Cl)c4)c(N)c23)c(Cl)c1 [4a] | 29.9 ± 5.6 | 5.7 | 
12 | N#Cc1c(N)nc2sc(C(=O)c3cccc(Cl)c3)c(N)c2c1-c1ccc(N2CCOCC2)cc1Cl [4e] | 20.2 ± 4.8 |  | 
13 | N#Cc1c(N)nc2sc(C(=O)c3cccc(Cl)c3)c(N)c2c1-c1ccc(F)cc1Cl [2b] | 28.1 ± 3.3 | 6.1 | 
14 | N#Cc1c(N)nc2sc(C(=O)c3cccc(Cl)c3)c(N)c2c1-c1ccccc1Cl [compound 1] |  |  | IC50 (PfGSK-3): 0.24 µM; selectivity index plasmodial versus human GSK-3 (PfGSK-3; Kinase Glo Plus assay, PfGSK-3 versus HsGSK-3): 38; IC50 [2]: 5.5 µM; IC50 (HsGSK-3): 9.08 µM; SI (selectivity index) = IC50 HEK293T/IC50 PfNF54-Luc (HEK293T cells; HEK293T versus PfNF54-Luc): 6.4; IC50 (HEK293T cells; Homo sapiens, HEK-293T, cell viability, 48 h, mean of six determinations, range in brackets): 35.2 µM; solubility kinetic at 10 s [3]: 1.5 ± 0.3 µM (≈ 0.659 µg/mL)
15 | CCN(CC)c1ccc(-c2c(C#N)c(N)nc3sc(C(=O)c4cccc(Cl)c4)c(N)c23)c(Cl)c1 [(−)4b] |  |  | IC50 (PfGSK-3): > 100 µM
16 | CC(C)(C)OC(=O)N1CCN(c2ccc(-c3c(C#N)c(N)nc4sc(C(=O)c5cccc(Cl)c5)c(N)c34)c(Cl)c2)CC1 [4g] | 42.1 ± 2.9 | 3.8 | 
17 | Cc1ccc(-c2c(C#N)c(N)nc3sc(C(=O)c4cccc(Cl)c4)c(N)c23)c(Cl)c1 [2d] | 12.4 ± 2.4 |  | 
18 | N#Cc1c(N)nc2sc(C(=O)c3cccc(Cl)c3)c(N)c2c1-c1ccc(N2CCCC2)cc1Cl [4c] | 33.0 ± 2.4 |  | 
19 | COc1ccc(-c2c(C#N)c(N)nc3sc(C(=O)c4cccc(Cl)c4)c(N)c23)c(Cl)c1 [3a] | 33.2 ± 3.2 | 12.2 | 
20 | CCOc1ccc(-c2c(C#N)c(N)nc3sc(C(=O)c4cccc(Cl)c4)c(N)c23)c(Cl)c1 [3b] | 14.5 ± 1.3 |  | 
21 | CN(CCNC(=O)OC(C)(C)C)c1ccc(-c2c(C#N)c(N)nc3sc(C(=O)c4cccc(Cl)c4)c(N)c23)c(Cl)c1 [4f] | 67.1 ± 2.7 | 2.5 | 
22 | CN(CC[C@H](N)CC(=O)N[C@H]1C=C[C@H](n2ccc(N)nc2=O)O[C@@H]1C(=O)O)C(=N)N [BS, Blasticidin, reference compound] | 99.3 ± 0.7 |  | inhibition of parasite growth (positive control) ([1]; 2 µg/mL, 48 h): > 90%
